# Assay results as given in patent US6337348B1, “Oxy-vanadium (iv) complexes having spermicidal activity” (Parker Hughes Institute, priority 1998, dated 2002).
# Experiments:
# [1] = tested on: human sperm; test: Sperm immobilization assay (SIA), motility by CASA; type: cell-based; details: read-out: EC50 (concentration that decreases the proportion of motile sperm by 50%); 3 hours incubation at 37° C., BWW-0.3% BSA, serial 2-fold dilutions 250 μM to 1.9 μM, mean of two experiments
# Experimental: To evaluate the spermicidal effects of complexes of oxovanadium (IV), VO(phen), VO(phen)2, VO(Me2—phen), VO(Me2—phen)2, VO(Cl—phen), VO(Cl—phen)2], VO(bipy), VO(bipy)2, VO(Me2—bipy), VO(Me2—bipy)2, and VO(Br,OH—acph)2, a highly motile fraction of pooled donor sperm (N=5) was prepared by discontinuous (90−45%). Percoll gradient (Conception Technologies, San Diego, Calif.) centrifugation and the “swim-up” method as described previously (Aitken et al., 1989, Biol. Reprod. 40:183-197). All donor specimens were obtained after informed consent and in compliance with the guidelines of the Hughes Institutional Review Board. Motile sperm (≳10×10^6/ml) were suspended in 1 ml of Biggers, Whitten, and Whittingham's medium (BWW) containing 0.3% BSA (fraction V; Sigma Chemical Co., St. Louis, Mo.) in the presence and absence of serial 2-fold dilutions of test substance (250 μM−1.9 μM) in 0.25% dimethyl sulfoxide (DMSO). For each experiment, fresh stock solutions (100 mM) of vanadium compounds were prepared in DMSO. A corresponding volume of DMSO (0.25%) was added to control sperm suspension. After 3 hours of incubation at 37° C., the percentage of motile sperm was evaluated by computer-assisted sperm motion analysis (CASA) as described previously (Aitken et al., 1989, Supra). The percentages of motilities were compared with those of sham-treated control suspensions of motile sperm.
# For CASA, 4 μl each of sperm suspension was loaded into two 20 μm Microcell chambers placed onto a counting chamber at 37° C. At least 5-8 fields per chamber were scanned for analysis using a Hamilton Thorne Integrated Visual Optical System (IVOS) version 10 instrument (Hamilton Thorne Research Inc., Danvers, Mass.). Each field was recorded for 30 seconds. The Hamilton Thorne computer calibrations were set at 30 frames at a frame rate of 30 images/seconds. Other settings were as follows: minimum contrast 8; minimum size 6; low-size gate, 1.0; high-size gate,2.9; low-intensity gate, 0.6; high-intensity gate, 1.4; phase-contrast illumination; low path velocity at 10 μm/seconds and threshold straightness at 80%; magnification factor, 1.95. The performance of the analyzer was periodically checked using the playback function.
# Results for the various numerical sperm functional parameters are presented as mean±standard deviation (SD) values. Comparison between oxovanadium (IV) complex-treated and control sperm relative to sperm motility parameters and apoptosis were performed using paired, two-tailed Student's T-test. A p value of <0.05 was considered significant.
# [2] = tested on: human sperm; test: Flow cytometric quantitation of sperm acrosome reaction (anti-CD46 mAb binding); type: cell-based; details: tested at 100 μM, 3 hours, 37° C., mean of two experiments
# Experimental: In experiments designed to assess the comparative effects of oxovanadium (IV) complexes and N-9 on sperm acrosome reaction, motile fractions of sperm (10^7/ml) prepared from a single donor were incubated in 1 ml of BWW−0.3% BSA in the presence of 100 μM each of the vanadocene complexes, VO(phen), VO(phen)2, VO(Me2—phen), VO(Me2—phen)2, VO(Cl—phen), VO(Cl—phen)2, VO(bipy), VO(bipy)2, VO(Me2—bipy), VO(Me2—bipy)2, and VO(Br,OH—acph)2 in 0.1% DMSO, N-9, or DMSO (0.1%) alone at 37° C. After 3 hours, 5 μg/ml of purified, phycoerythrin (PE)-conjugated murine anti-CD46 monoclonal antibody (mAb; clone 122-2; Research Diagnostics, Flanders, N.J.) was added and the sperm suspensions incubated for an additional 30 minutes. The suspensions was washed in Tyrode's salt solution (Sigma) containing 1% BSA (1% TBSA) and the percentage of CD46-positive sperm were analyzed by flow cytometry using a FACS Vantage flow cytometer (Becton Dickinson, Mountain View, Calif.), as described previously (DeCruz et al., 1996, Biol Reprod. 54:1217-1228; DeCruz et al., 1992, Fertil. Seril., 58:633-636). Two separate experiments were performed to quantitate acrosomal loss following exposure of sperm to oxovanadium (IV) complexes.
substance,measurement,setting,value
"nonoxynol-9 [N-9, reference compound]",EC50,[1],78.5 µM
same,Anti-CD46 positive sperm (%),[2],86%
